Patent US9763979B2, “Cardioplegic preparation” (Universitat Bern, priority 2008, dated 2017)

Assay: Experimental and clinical tests of potassium bioavailability
Conditions: in presence of xylitol and/or citric acid
From the text: As compared to previous cardioplegic solutions the preparation according to the invention has a higher potassium concentration. […] By increasing thus the initial content of potassium in the cardioplegic solution, the concentration necessary to achieve the cardioplegic effect is guaranteed.

**Q.** With `[Cl-].[K+]` [Potassium ions, Potassium chloride] as the compound, how does the “bioavailability of Potassium ions” value read?
**A.** reduced bioavailability
